According to ChEMBL document CHEMBL5532680, “Identification of a Sonically Activated Degrader of Methionine Adenosyltransferase 2A by an in Silico Approach Assisted with the Hole-Electron Analysis” (J Med Chem, 2024):
Calls of active or inactive are those of the source. The calls are words filed in the database; no cut-off is given here.

How the values were obtained:
[1] = target: T1, S-adenosylmethionine synthase isoform type-2 (Homo sapiens, UniProt P31153); test: Inhibition of recombinant human MAT2A expressed in baculovirus infected Sf9 cells using L-methione as substrate preincubated for 15 mins followed by substrate addition and measured after 60 mins in presence of ATP by Kinase-Glo luminescent assay
Target sequence in this assay (P31153 whole entry, canonical isoform): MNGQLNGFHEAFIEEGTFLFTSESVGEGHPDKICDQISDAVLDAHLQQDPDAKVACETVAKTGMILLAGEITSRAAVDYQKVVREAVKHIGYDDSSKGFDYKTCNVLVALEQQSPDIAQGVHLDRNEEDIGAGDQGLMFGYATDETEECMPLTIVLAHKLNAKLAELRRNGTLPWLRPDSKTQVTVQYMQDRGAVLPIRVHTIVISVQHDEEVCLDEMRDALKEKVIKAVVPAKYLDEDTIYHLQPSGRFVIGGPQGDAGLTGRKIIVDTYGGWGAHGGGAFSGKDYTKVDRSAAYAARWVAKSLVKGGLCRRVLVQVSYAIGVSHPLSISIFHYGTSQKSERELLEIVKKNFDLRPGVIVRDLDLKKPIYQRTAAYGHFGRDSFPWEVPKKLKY

[2] = target: T1, S-adenosylmethionine synthase isoform type-2; test: Inhibition of recombinant human MAT2A expressed in baculovirus infected Sf9 cells at grated than 10 nM using L-methione as substrate preincubated for 15 mins followed by substrate addition and measured after 60 mins in presence of ATP by Kinase-Glo luminescent assay; conditions: time 75.0 min
Target sequence in this assay (P31153 whole entry, looked up, canonical isoform): as the sequence (P31153 whole entry, canonical isoform) above

HCT-116 [3] = test: Antiproliferative activity against MTAP knocked out human HCT-116 cells incubated for 5 days by MTT method; type: functional, cell-based; conditions: HCT-116, 120 h
HCT-116 [4] = test: Antiproliferative activity against wild type human HCT-116 cells at less than 1 uM incubated for 5 days by MTT method; type: functional, cell-based; conditions: time 5.0 day
HCT-116 [5] = test: Induction of ROS generation in human HCT-116 cells assessed as fold increase at 0.1 uM preincubated for 6 hrs followed by sonication for 4 mins by DCFH-DA staining based flow cytometry analysis; type: functional; conditions: time 364 min, 6.067 h
HCT-116 [6] = test: Antiproliferative activity against MTAP knocked out human HCT-116 cells incubated for 5 days by MTT method relative to control; type: functional; conditions: time 5 day
HCT-116 [7] = test: Antiproliferative activity against wild type human HCT-116 cells assessed as cell viability at 10 uM under 4 mins sonication; type: functional; conditions: HCT-116, 4 min, read-out: Activity
HCT-116 [8] = test: Induction of apoptosis in MTAP knocked out human HCT-116 cells at 0.1 uM preincubated for 24 hrs followed by sonication for 4 mins by annexin V-FITC/PI staining based flow cytometry analysis relative to control; type: functional, cell-based; conditions: time 1444.0 min
[9] = Half-life in ICR mouse at 10 mg/kg, po measured upto 24 hrs by LC-MS/MS analysis; type: ADME, organism-based; conditions: in vivo
[10] = AUC in ICR mouse at 1 mg/kg, iv measured upto 24 hrs by LC-MS/MS analysis; type: ADME, organism-based; conditions: in vivo
[11] = AUC in ICR mouse at 10 mg/kg, po measured upto 24 hrs by LC-MS/MS analysis; type: ADME, organism-based; conditions: in vivo
[12] = Volume of distribution at steady state in ICR mouse at 1 mg/kg, iv measured upto 24 hrs by LC-MS/MS analysis; type: ADME, organism-based; conditions: in vivo, read-out: Vdss
[13] = Drug metabolism in BALB/c mouse blood after 24 hrs; type: ADME, tissue-based
[14] = Mean residence time in BALB/c mouse at 10 mg/kg, po measured upto 24 hrs by LC-MS/MS analysis; type: ADME, organism-based; conditions: in vivo
[15] = Oral bioavailability in BALB/c mouse at 10 mg/kg measured upto 24 hrs by LC-MS/MS analysis; type: ADME, organism-based; conditions: in vivo
[16] = Biodistribution in MATP knocked out human HCT-116 cells xenografted in BALB/c mouse assessed as fluorescence intensity in tumor at 10 mg/kg, po measured after 24 hrs; type: ADME, organism-based; conditions: in vivo
[17] = Biodistribution in MATP knocked out human HCT-116 cells xenografted in BALB/c mouse assessed as fluorescence intensity in skin at 10 mg/kg, po measured after 24 hrs; type: ADME, organism-based; conditions: in vivo
[18] = Biodistribution in MATP knocked out human HCT-116 cells xenografted in BALB/c mouse assessed as fluorescence intensity in liver at 10 mg/kg, po measured after 24 hrs; type: ADME, organism-based; conditions: in vivo
[19] = Biodistribution in MATP knocked out human HCT-116 cells xenografted in BALB/c mouse assessed as fluorescence intensity in lung at 10 mg/kg, po measured after 24 hrs; type: ADME, organism-based; conditions: in vivo
HCT-116 [20] = test: Antitumor activity against […] knocked out human HCT-116 cells xenografted in BALB/c mouse assessed as tumor growth inhibition at 10 mg/kg, po administered once a day for 6 hrs and measured after 3 weeks; type: functional; conditions: HCT-116, 504 h, read-out: TGI
HCT-116 [21] = test: Antitumor activity against […] knocked out human HCT-116 cells xenografted in BALB/c mouse assessed as tumor growth inhibition at 10 mg/kg, po administered once a day followed by 4 mins sonication post 6 hrs of compound administration and measured for 3 weeks; type: functional; conditions: HCT-116, 504 h, read-out: TGI
HCT-116 [22] = test: Antitumor activity against […] knocked out human HCT-116 cells xenografted in BALB/c mouse assessed as tumor growth inhibition at 50 mg/kg, po administered once a day for 6 hrs and measured after 3 weeks; type: functional; conditions: HCT-116, 504 h, read-out: TGI
HCT-116 [23] = test: Antitumor activity against […] knocked out human HCT-116 cells xenografted in BALB/c mouse assessed as reduction in tumor weight at 10 mg/kg, po administered once a day followed by 4 mins sonication post 6 hrs of compound administration and measured for 3 weeks; type: functional, organism-based
[24] = Toxicity in BALB/c mouse xenografted with human HCT-116 cells assessed as spleen damage at 10 mg/kg, po by H and E staining based assay; type: organism-based; conditions: in vivo
[25] = Toxicity in BALB/c mouse xenografted with human HCT-116 cells assessed as kidney damage at 10 mg/kg, po by H and E staining based assay; type: organism-based; conditions: in vivo
[26] = Toxicity in BALB/c mouse xenografted with human HCT-116 cells assessed as heart damage at 100 mg/kg, po by H and E staining based assay; type: organism-based; conditions: in vivo
Cytochrome P450 1A2 = target: T2, Cytochrome P450 1A2 (Homo sapiens, UniProt P05177); test: Inhibition of CYP1A2 (unknown origin); type: ADME
T2 sequence (P05177 whole entry): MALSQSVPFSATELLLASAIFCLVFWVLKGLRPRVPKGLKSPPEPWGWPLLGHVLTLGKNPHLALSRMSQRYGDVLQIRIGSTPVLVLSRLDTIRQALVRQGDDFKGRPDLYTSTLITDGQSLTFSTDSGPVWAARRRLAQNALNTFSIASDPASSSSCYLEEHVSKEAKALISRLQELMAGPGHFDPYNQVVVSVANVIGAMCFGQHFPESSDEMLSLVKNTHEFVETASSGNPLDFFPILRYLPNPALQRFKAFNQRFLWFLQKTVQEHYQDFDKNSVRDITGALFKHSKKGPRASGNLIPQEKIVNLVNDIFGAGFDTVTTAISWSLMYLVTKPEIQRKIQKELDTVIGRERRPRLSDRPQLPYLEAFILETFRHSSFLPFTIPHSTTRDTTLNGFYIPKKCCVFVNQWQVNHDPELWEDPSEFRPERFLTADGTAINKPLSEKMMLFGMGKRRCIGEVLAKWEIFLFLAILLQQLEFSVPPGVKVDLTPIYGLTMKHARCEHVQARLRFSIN

Cytochrome P450 2C19 = Cytochrome P450 2C19 (Homo sapiens, UniProt P33261); test: Inhibition of CYP2C19 (unknown origin); type: ADME
Sequence of Cytochrome P450 2C19 (P33261 whole entry): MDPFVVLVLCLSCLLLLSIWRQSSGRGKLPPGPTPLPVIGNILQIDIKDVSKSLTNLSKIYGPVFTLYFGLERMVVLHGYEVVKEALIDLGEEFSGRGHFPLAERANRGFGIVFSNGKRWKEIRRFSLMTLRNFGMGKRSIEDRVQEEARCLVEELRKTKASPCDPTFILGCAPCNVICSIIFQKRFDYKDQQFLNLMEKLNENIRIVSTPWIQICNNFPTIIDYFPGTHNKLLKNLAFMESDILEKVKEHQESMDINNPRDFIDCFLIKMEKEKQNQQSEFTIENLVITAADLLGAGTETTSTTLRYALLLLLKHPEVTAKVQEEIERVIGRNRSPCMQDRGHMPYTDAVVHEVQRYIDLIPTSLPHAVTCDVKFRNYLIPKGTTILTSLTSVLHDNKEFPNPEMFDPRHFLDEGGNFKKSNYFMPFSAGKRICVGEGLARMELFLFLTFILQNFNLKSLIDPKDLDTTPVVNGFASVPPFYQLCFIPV

Cytochrome P450 2D6 = Cytochrome P450 2D6 (Homo sapiens, UniProt P10635); test: Inhibition of CYP2D6 (unknown origin); type: ADME
Sequence of Cytochrome P450 2D6 (P10635 whole entry): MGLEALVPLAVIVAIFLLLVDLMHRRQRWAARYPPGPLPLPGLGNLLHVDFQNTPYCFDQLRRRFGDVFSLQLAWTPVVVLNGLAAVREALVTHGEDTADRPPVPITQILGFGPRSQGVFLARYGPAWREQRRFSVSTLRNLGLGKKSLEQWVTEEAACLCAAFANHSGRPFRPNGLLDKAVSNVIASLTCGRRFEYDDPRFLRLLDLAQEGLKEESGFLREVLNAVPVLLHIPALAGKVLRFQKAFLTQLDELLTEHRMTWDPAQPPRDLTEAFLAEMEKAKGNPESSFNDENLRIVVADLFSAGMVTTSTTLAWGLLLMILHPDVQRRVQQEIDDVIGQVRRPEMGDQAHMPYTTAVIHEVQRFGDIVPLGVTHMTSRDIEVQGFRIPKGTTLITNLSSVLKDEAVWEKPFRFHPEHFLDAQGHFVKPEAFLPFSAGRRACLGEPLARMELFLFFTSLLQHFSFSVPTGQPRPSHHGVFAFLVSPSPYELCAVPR

[27] = target: Voltage-gated inwardly rectifying potassium channel KCNH2 (Homo sapiens, UniProt Q12809); test: Inhibition of hERG by plate based patch clamp method; type: toxicity
Sequence of Voltage-gated inwardly rectifying potassium channel KCNH2 (Q12809 whole entry): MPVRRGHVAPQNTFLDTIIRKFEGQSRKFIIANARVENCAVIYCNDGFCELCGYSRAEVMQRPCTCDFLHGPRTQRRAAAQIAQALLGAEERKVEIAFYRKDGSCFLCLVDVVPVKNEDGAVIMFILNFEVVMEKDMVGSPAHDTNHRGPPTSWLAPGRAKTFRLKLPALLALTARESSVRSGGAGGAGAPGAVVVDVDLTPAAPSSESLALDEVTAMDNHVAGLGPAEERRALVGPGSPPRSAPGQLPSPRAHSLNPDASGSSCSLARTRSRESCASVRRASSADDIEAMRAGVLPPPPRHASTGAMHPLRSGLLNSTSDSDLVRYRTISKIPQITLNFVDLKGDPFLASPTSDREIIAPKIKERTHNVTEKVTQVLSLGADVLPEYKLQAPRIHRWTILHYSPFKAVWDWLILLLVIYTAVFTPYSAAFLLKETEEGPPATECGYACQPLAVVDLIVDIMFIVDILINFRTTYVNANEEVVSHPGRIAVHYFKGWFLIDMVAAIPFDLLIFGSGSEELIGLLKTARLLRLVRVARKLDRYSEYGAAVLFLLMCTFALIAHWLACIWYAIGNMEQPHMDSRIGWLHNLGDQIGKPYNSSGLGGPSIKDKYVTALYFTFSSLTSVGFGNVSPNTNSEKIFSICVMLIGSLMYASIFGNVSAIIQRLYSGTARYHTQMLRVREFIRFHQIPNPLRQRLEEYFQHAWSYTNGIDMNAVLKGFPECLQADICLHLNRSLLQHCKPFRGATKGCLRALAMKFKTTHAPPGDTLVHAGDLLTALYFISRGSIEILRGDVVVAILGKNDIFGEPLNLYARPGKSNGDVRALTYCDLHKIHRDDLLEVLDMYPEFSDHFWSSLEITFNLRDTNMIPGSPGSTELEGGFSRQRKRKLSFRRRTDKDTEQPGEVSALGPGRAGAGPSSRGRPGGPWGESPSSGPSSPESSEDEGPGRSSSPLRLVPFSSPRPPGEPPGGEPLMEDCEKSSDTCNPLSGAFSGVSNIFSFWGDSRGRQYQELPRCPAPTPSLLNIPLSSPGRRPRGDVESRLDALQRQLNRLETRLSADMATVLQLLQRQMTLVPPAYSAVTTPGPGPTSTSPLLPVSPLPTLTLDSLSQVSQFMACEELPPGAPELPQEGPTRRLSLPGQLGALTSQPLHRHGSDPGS

With CCOc1ncc2cc(-c3ccc4c(c3)N3CCCC3CO4)c(=O)n(-c3ccc(OC(F)F)cc3)c2n1 (stereo not given) the IC50 [1] was 0.061 µM, the inhibition [2] was “Active” and the IC50 (HCT-116 [3]) was 0.35 µM. For the same molecule, the Activity (HCT-116 [4]) was “inactive”, the “fold change (FC)” value (HCT-116 [5]) was 6 and the Activity (HCT-116 [6]) was 92%. For the same molecule, the viability at 10 µM (HCT-116 [7]) was 77%, the Activity (HCT-116 [8]) was “Active” and the half-life [9] was 2.9 h. For the same molecule, the AUC [10] was 1267 ng·h/mL, the AUC at 24 h [11] was 9710 ng·h/mL and the Vd [12] was 3.47 L/kg. The Drug metabolism [13] was “Metabolite_Detected”, the MRT [14] was 5.1 h and the F [15] was 77%. The Drug uptake [16] was “Active”, the Drug uptake [17] was “Active” and the Drug uptake [18] was “Active”. For the same molecule, the Drug uptake [19] was “Active”, the inhibition in vivo at 10 mg/kg (HCT-116 [20]) was 15.6% and the inhibition in vivo at 10 mg/kg (HCT-116 [21]) was 103%. The inhibition in vivo at 50 mg/kg (HCT-116 [22]) was 93.5%, the Activity (HCT-116 [23]) was “Active” and the Activity [24] was “Non-Toxic”. The Activity [25] was “Non-Toxic”, the Activity [26] was “Non-Toxic” and the IC50 (Cytochrome P450 1A2) was over 50 µM. It also gave an IC50 (Cytochrome P450 2C19) of 16 µM, an IC50 (Cytochrome P450 2D6) of 39 µM and an IC50 [27] of over 50 µM.
